Key:
[1] = test system: LPS induced IL23p19 in THP-1 cells; test: LPS Induced IL23p19 in THP-1 Cells (with IFNγ Primed) Assay; type: cell-based; conditions: Homo sapiens; THP-1 cells primed with IFNγ 50 ng/mL, 1 μg/mL LPS, 18 hours, 10 pt; read-out: IL23-p19 ELISA, THP1-IFNy, LPS, 10 pt EC50
Source text: LPS Induced IL23p19 in THP-1 Cells (with IFNγ Primed) Assay
THP-1 Cells (ATCC, Cat # TIB-202), Dimethyl Sulfoxide (DMSO) (Sigma-Aldrich, Cat # D2650), RPMI 1640 (Cellgro, Cat #10-040-CM), Fetal Bovine Serum (Sigma, Cat # F4135), Albumin From Bovine Serum (BSA) (Sigma-Aldrich, Cat # A7906), LPS (Serotype K-235, Sigma, Product Number L 2143), IFNγ (Peprotech, Cat #300-02), Capture antibody: Human IL-23p19 ELISA (e-Bioscience, Cat. #14-7238-85), Detection antibody: Primary Mouse Biotinylated anti-human IL-12 (p40/p70) (e-Bioscience, Cat. #13-7129-85), Secondary HRP-conjugated Streptavidin (R&D Systems, Cat # DY998), 1×PBST Washing Buffer (PBS-Tween tablet) (VWR International, Cat #80058-558), ELISA Blocking Buffer (PBS with 1% BSA), ELISA Dilution Buffer (PBS with 1% BSA), 384 Well Flat-Bottom, MaxiSorp Black Immuno Plates (Thermo Scientific, Cat #12-565-346), 384 Well Flat-Bottom, White Tissue Culture Plates (Thermo Scientific, Cat #12-565-343), Super Signal ELISA Pico Chemiluminescent Substrate (Thermo Scientific, Cat #37070), Cell Titer Glo reagent (Promega, Cat # G7573), Positive control, IKK2VI inhibitor (Calbiochem, Cat #401483), AquaMax 4000 plate washer (Molecular Devices), Luminometer, Wallac Victor2 1420 Multilabel Counter.
On day 1, 50K/well THP-1 cells were seeded and primed with IFNγ (50 ng/mL) in 384-well plates for about 18 hours in RPMI media with 10% FBS. On day 2, the compound was serially diluted in DMSO from 5 mM in 3-fold dilutions, and then diluted 1:125 in RPMI media with 10% FBS. 50 μL/well 2× compound was added to 50 μL/well THP-1 cells (with IFNγ primed) in duplicate in 384 well tissue culture plates. The cells were pre-incubated with compound for 1 hour at 37° C., 5% CO2 before addition of 10 μL/well 11×LPS to give a final concentration of 1 μg/mL LPS. Day 3, after stimulation for 18 hours at 37° C., 5% CO2, the assay plate was centrifuged and 70 μL/well supernatant was harvested. IL-23p19 protein in 70 μL/well of supernatant was measured by sandwich ELISA, and 25 μl/well Cell Titer Glo reagent was added to the remaining cells to measure compound toxicity.
Human IL-23p19 Sandwich ELISA:
Maxisorp immuno ELISA plates were pre-coated with 25 μL/well of anti-IL-23p19 capture antibody (2.5 ug/mL) in PBS overnight at room temperature. After washing with 1×PBST, the plates were blocked using 100 μL/well of 1% BSA in PBS for 2 hours at room temperature. The plates were washed three times with 1×PBST and 70 μL/well supernatant were added. The plates were incubated at room temperature for 2 hours with shaking and washed three times with 1×PBST. 25 μL/well of biotin labeled anti-IL-12 (p40/p70) detection antibody (100 ng/mL) in PBS with 1% BSA was added and the plates were incubated at room temperature for 2 hours with shaking. After washing three times with 1×PBST, 25 μL/well of streptavidin-HRP (1:200) in PBS with 1% BSA was added and the plates were incubated at room temperature for 20 minutes with shaking. The plates were washed three times with 1×PBST and 25 μL/well of Super Signal ELISA Pico Chemiluminescent Substrate were added. The plates were read with a luminometer, and the chemiluminescence values were entered into Athena (Rigel) for curve fitting, EC50 calculation, and database storage.

[2] = test system: LPS induced IL-23 (p19/p40) in DC cells differentiated from human PBMC; test: IL23-p19 ELISA, dendritic cells (DC differentiated from human PBMC), IFNγ primed, LPS stimulated; type: cell-based; conditions: human PBMC-derived dendritic cells, 1 μg/ml LPS, 18 hours, 10 pt
Method: Compound Screening Using DC Cells
1. Differentiation of PBMC's to DC Cells:
Human PBMC cells (400 million) obtained from the vendor were transferred into a T-175 flask containing 15 ml RPMI media (10% FBS) and incubate for 2 hours at 37° C. After 2 hours, the media including floating cells was aspirated out carefully and 12 ml of fresh RPMI media (10% FBS) containing GMCSF (100 ng/ml) and IL4 (20 ng/ml) was added, and the flask was kept in a 37° C. incubator for 7 days.
After 3 days, fresh GMCSF (100 ng/ml) and IL4 (20 ng/ml) were added to the flask and the incubation continued. After 7 days, the fully differentiated cells were harvested by spinning down (1200 rpm/5 min) and aspirating the media. The cells were suspended in fresh RPMI media (10% FBS) containing 50 ng/ml IFNγ (1000 U/ml) and then plated (50K/well in 100 μl) onto a white clear bottom 96 well plate and left in a 37° C. incubator for 24 hours.
2. Addition of Compounds:
After 24 hours incubation, 100 μl of RPMI media was added containing 2× concentrated test compound per well to the above cell-culture media (final concentration becomes 1×) and the plates were pre-incubated for 1 hour at 37° C. before stimulating with LPS.
After 1 hour compound pre-incubation, 10 μl per well of 20× concentrated LPS solution in RPMI media was added to give a final concentration of 1 μg/ml. The mixture was shaken and incubated the plates at 37° C. for an additional 18 hours.
155 μl of the supernatant was harvested from each well carefully (without the tip touching the bottom of the well) and to the remaining 50 μl/well of the cell culture plate was added 50 μl of Cell Titer Glo reagent. The mixture was incubated for 1-2 minutes on a shaker and the plate was read for luminescence intensity to determine the compound cytotoxicity. The cell culture supernatant collected above was used to carry out IL23 ELISA (65 μl-Supernatant) and IL10 ELISA (90 μl-Supernatant) as described below.
Human IL-23 (p19/p40) ELISA Protocol (e-Biosciences)
To 10.5 ml PBS add 50 μl of anti-IL23 (p19) was added capture antibody (2.5 μg/ml). The mixture was mixed well and 100 μl of the coating solution was added to each well of the 96 well white plates from Pierce. The wells were covered and incubated overnight at 4° C.
The anti-IL23 (p19)-antibody-coated plates were washed 2× using TBST (use plate washer) and blocked using 200 μl of 0.5% Casein for 1.5-2 hours at room temperature with shaking.
The plates were washed 2× using TBST and the supernatant was transferred (65 μl/well) to the above pre-blocked/IL23 (p19)-antibody-coated 96 well plate, and incubated at room temperature for 1.5 hours with shaking.
The plates were washed 4× using TBST (plate washer) and 100 μl/well detection antibody solution prepared from 2 μl of biotin labeled anti-IL-12 (p40/p70) antibody in 11 ml 1% BSA/PBS solution (1-5000 dilution) was added. The plates were incubated for 1 hour with shaking at room temperature.
Again, the plates were washed 4× with TBST and 100 μl of HRP labeled Streptavidin (R&D Systems) solution (10 μl/10 ml 1% BSA solution) was added, and the plates were incubated at room temperature for another 45 minutes with shaking.
After 45 minutes, the plates were washed with TBST 4× and 100 ul/well Super Signal ELISA Pico Chemiluminescent Substrate from Pierce (3.5 ml A+3.5 ml B+3.5 ml MQ water) was added. The plates were shaken for 1-2 minutes then read on a plate reader.

Row | SMILES | EC50 [1] | EC50 [2]
1 | O=C(Nc1ccc(N2CCOCC2)cc1N1CCOCC1)c1csc(-c2cn[nH]c2)n1 [I-15, N-(2,4-dimorpholinophenyl)-2-(1H-pyrazol-4-yl)thiazole-4-carboxamide] | 173 nM | 484 nM
2 | CC1(O)CCN(c2cc(N3CCOCC3)ccc2NC(=O)c2cccc(-c3cn[nH]c3)n2)CC1 [I-16, N-(2-(4-hydroxy-4-methylpiperidin-1-yl)-4-morpholinophenyl)-6-(1H-pyrazol-4-yl)picolinamide] | 740 nM | 1720 nM
3 | O=C(Nc1ccc(N2CCOCC2)cc1N1CCCC1)c1cccc(-c2cn[nH]c2)n1 [I-22, N-(4-morpholino-2-(pyrrolidin-1-yl)phenyl)-6-(1H-pyrazol-4-yl)picolinamide] | 3230 nM | 16400 nM
4 | O=C(Nc1ccc(N2CCOCC2)cc1N1CCCC1)c1ccc(-c2cn[nH]c2)o1 [I-23, N-(4-morpholino-2-(pyrrolidin-1-yl)phenyl)-5-(1H-pyrazol-4-yl)furan-2-carboxamide] | 2860 nM | 2270 nM
5 | O=C(Nc1cc(N2CCOCC2)ccc1N1CCCCC1)c1csc(-c2cn[nH]c2)n1 [I-26, N-(5-morpholino-2-(piperidin-1-yl)phenyl)-2-(1H-pyrazol-4-yl)thiazole-4-carboxamide] | 554 nM | 847 nM
6 | O=C(Nc1cc(OCCN2CCOCC2)ccc1N1CCCCC1)c1cccc(-c2cn[nH]c2)n1 [I-27, N-(5-(2-morpholinoethoxy)-2-(piperidin-1-yl)phenyl)-6-(1H-pyrazol-4-yl)picolinamide] | 2990 nM | 857 nM
7 | O=C(Nc1cc(OCCN2CCOCC2)ccc1N1CCCCC1)c1ccc(-c2cn[nH]c2)o1 [I-28, N-(5-(2-morpholinoethoxy)-2-(piperidin-1-yl)phenyl)-5-(1H-pyrazol-4-yl)furan-2-carboxamide] | 189 nM | 63.8 nM
8 | O=C(Nc1cc(CCN2CCOCC2)c(F)cc1N1CCCCC1)c1ccc(-c2cn[nH]c2)o1 [I-31, N-(4-fluoro-5-(2-morpholinoethyl)-2-(piperidin-1-yl)phenyl)-5-(1H-pyrazol-4-yl)furan-2-carboxamide] | 17200 nM | 63.8 nM
9 | O=C(Nc1cc(CCN2CCOCC2)c(F)cc1N1CCCCC1)c1csc(-c2cn[nH]c2)n1 [I-32, N-(4-fluoro-5-(2-morpholinoethyl)-2-(piperidin-1-yl)phenyl)-2-(1H-pyrazol-4-yl)thiazole-4-carboxamide] | 173 nM | 324 nM
10 | O=C(Nc1cc(C(F)(F)CN2CCOCC2)ccc1N1CCCCC1)c1ccc(-c2cn[nH]c2)o1 [I-34, N-(5-(1,1-difluoro-2-morpholinoethyl)-2-(piperidin-1-yl)phenyl)-5-(1H-pyrazol-4-yl)furan-2-carboxamide] | 1540 nM | 6620 nM

The remaining compounds from weak to strong by EC50 [1], led by results:

Row | EC50 [1] | SMILES | EC50 [2]
11 | 2330 nM | O=C(Nc1ccc(N2CCOCC2)cc1N1CCC(F)(F)CC1)c1ccc(-c2cn[nH]c2)o1 [I-20, N-(2-(4,4-difluoropiperidin-1-yl)-4-morpholinophenyl)-5-(1H-pyrazol-4-yl)furan-2-carboxamide] | 1120 nM
12 | 836 nM | O=C(Nc1ccc(N2CCOCC2)cc1N1CCCC1)c1csc(-c2cn[nH]c2)n1 [I-24, N-(4-morpholino-2-(pyrrolidin-1-yl)phenyl)-2-(1H-pyrazol-4-yl)thiazole-4-carboxamide] | 794 nM
13 | 645 nM | O=C(Nc1cc(N2CCOCC2)ccc1N1CCCCC1)c1ccc(-c2cn[nH]c2)o1 [I-25, N-(5-morpholino-2-(piperidin-1-yl)phenyl)-5-(1H-pyrazol-4-yl)furan-2-carboxamide] | 532 nM
14 | 465 nM | O=C(Nc1ccc(N2CCOCC2)cc1N1CCC(F)(F)CC1)c1csc(-c2cn[nH]c2)n1 [I-21, N-(2-(4,4-difluoropiperidin-1-yl)-4-morpholinophenyl)-2-(1H-pyrazol-4-yl)thiazole-4-carboxamide] | 1000 nM
15 | 216 nM | CC1(O)CCN(c2cc(N3CCOCC3)ccc2NC(=O)c2ccc(-c3cn[nH]c3)o2)CC1 [I-17, N-(2-(4-hydroxy-4-methylpiperidin-1-yl)-4-morpholinophenyl)-5-(1H-pyrazol-4-yl)furan-2-carboxamide] | 166 nM
16 | 105 nM | O=C(Nc1cc(OCCN2CCOCC2)ccc1N1CCCCC1)c1csc(-c2cn[nH]c2)n1 [I-29, N-(5-(2-morpholinoethoxy)-2-(piperidin-1-yl)phenyl)-2-(1H-pyrazol-4-yl)thiazole-4-carboxamide] | 51.2 nM
17 | 95.1 nM | CC1(O)CCN(c2cc(N3CCOCC3)ccc2NC(=O)c2csc(-c3cn[nH]c3)n2)CC1 [I-18, N-(2-(4-hydroxy-4-methylpiperidin-1-yl)-4-morpholinophenyl)-2-(1H-pyrazol-4-yl)thiazole-4-carboxamide] | 106 nM

From patent US10590121B2, “Kinase inhibitors and methods for making and using” (Rigel Pharmaceuticals, Inc., priority 2017, dated 2020)
